Measurements: US20100197642A1, “SLOW RELEASE MISOPROSTOL FOR OBSTETRIC AND/OR GYNAECOLOGICAL APPLICATIONS” (priority 2007, published 2010)

Key:
[1] = cited from earlier work
[2] = Pharmacokinetic study of misoprostol acid (MPA) plasma levels after SR oral, sublingual or vaginal misoprostol; assay type: in vivo, women; conditions: 400 μg
Method: A study was performed with healthy women ≧18 years with a viable intrauterine pregnancy of up to 12 weeks (47-83 days) of gestation who had requested termination of pregnancy by vacuum aspiration.
After giving their informed consent, eligible women were allocated randomly to the three treatment groups using computer generated random tables and numbered, sealed, opaque envelopes opened consecutively. […] The SR misoprostol tablets were swallowed with a small amount of water. Women allocated to vaginal misoprostol treatment inserted the tablets intravaginally themselves.
The women were admitted to hospital in the morning after fasting overnight.
The blood samples were immediately cooled in a refrigerator at +6° C. for 30-60 minutes and thereafter centrifuged in a cooled centrifuge for 10 minutes at 3000 rpm. The plasma was then drawn from the blood samples and stored at below −20° C. for further analyses. […]
AUC was calculated according to the trapezoidal method, by dividing the area under the curve into trapezium segments according to the time intervals of blood sampling. […] The AUC720 was calculated by summation of the trapezium segments. Pulse, blood pressure and temperature were measured repeatedly and side-effects such as nausea, abdominal pain, skin rash or diarrhoea were recorded, as well as any analgesics given. […]

cumulative AUC of MPA over time (FIG. 2) ([2]; sublingual group): did not continue to rise after 6 hours
cumulative AUC of MPA over time (FIG. 2) ([2]; vaginal group): did not continue to rise after 6 hours
SMILES: CCCCC(C)(O)C/C=C/[C@H]1[C@H](O)CC(=O)[C@@H]1CCCCCCC(=O)OC (mixture of isomers) [misoprostol, (±) methyl 7-[3-(α-hydroxy-2-β-(4(RS)-4-hydroxy-4-methyl-trans-1-octen-1-yl)-oxycyclopent-1α-yl]heptanoate]
time at which plasma misoprostol level peaks ([1]; 400 μg oral misoprostol): about 30 minutes
time after administration with detectable levels of MPA remaining ([1]; vaginal administration): 6 h
time to maximum plasma level ([1]; vaginal administration): 70 to 80 min
